Test results from patent US20240047019A1, “MODEL-FREE TIME-INVARIANT EVALUATION OF TRANSPORT AND EFFICACY OF CHEMICALS AND DRUGS” (Seqvera Ltd. Oy, priority 2022, published 2024).
Where two headings read alike, the source gives them in different places.

Assays:
[1] = gentamicin elution from coated Ti-6Al-4V disks into 2 mL distilled water at 37° C.; type: physicochemical; conditions: for c2(t), gentamicin concentration in the target compartment: distilled water 37° C.; for Remained in the coating: of 1395 μg/disk
Protocol: In this example the most detailed in vitro testing conditions have been used. Disk of diameter 15.5 mm and thickness of 2 mm made of medical titanium Grade 5 (Ti-6Al-4V) alloy were uniformly coated with a mixture of 1395 μg/disk gentamicin palmitate and 3745 μg/disk palmitic acid in triplicate (9 disks=3 disks×3 repetitions).
Disks were placed into a glass tube filled with 2 mL distilled water at constant temperature 37° C. and aliquots of 0.050 mL were periodically extracted without refilling the remining volume. The concentration of gentamicin in these samples was measured in mg/L and based on this, the amount of gentamicin in the remaining solution was calculated. The procedure was repeated until 336 h have been accumulated, and the average of three measurements has been calculated, Table 5.
After 336 hours of measurements, totally 0.5 mL of liquid is removed and about 60 μg of the drug is taken off the system. This represents of 25% of the total liquid volume and about 23.5% of the total drug released from the disk. With unknown solubility from the beginning, it is difficult to say how this drug removal affects the solubility rate, diffusion rate (concentration gradient uneven) and about the release kinetics in general (besides just making a curve fitting). As liquid is being periodically removed, the VOD-2 in the target compartment is getting smaller from 2 mL to 1.5 mL (being not constant) and thus the concentration of gentamicin there (c2(t)) is affected too.
For the method of the present invention, exact VOD-1 for the source compartment has been first calculated. For the density of gentamicin palmitate of 1.5 g/cc and palmitic acid of 0.86 g/cc, taking into account the disk surface area of 188.69 mm^2, the expected dense coating thickness is about 28 μm at the beginning of the test, leading to the VOD-1 value (for the source compartment) of 5.285 mm^3. Since VOD-2 is not constant due to aliquots takeoffs, the coefficient of partition is not constant either and will change with time, approaching an equilibrium value (Leq).

[2] = caffeine transport in membrane-separated chip, control tests (bare membrane); type: in vitro ADME; conditions: 0.25 mg/mL
Protocol: In this example data of caffeine transport measurements disclosed in publication are analyzed with a new method. […] The membrane had 0.4 micrometer pore size and was made of polyester track etched (PETE) insert, which was used bare (control tests) and with a double layer of cells (actual tests): human umbilical vein endothelial cells (HUVECs) and BeWo cells (derived from a human choriocarcinoma) to represent the endothelium in the fetal interface and the epithelium in the maternal interface. The mean data used are from three independent experiments.

[3] = system: placental barrier (HUVECs and BeWo cells); experiment: caffeine transport in placenta-on-a-chip, actual tests (double cells layer); type: in vitro ADME, human; conditions: 0.25 mg/mL
clinical = conditions: human, in vivo
Description: The method used in publication relies on fractional order derivatives with a multi-compartmental model using Laplace transform, which is not a common operation a lab technician usually able to perform. […] The resulting simplified equation for time changes of the concentration in the blood plasma (=the target compartment in the terminology of the recent invention), designated as c2(t) in [6], was expressed with six unknown parameters (d, k02, k21, α1, α2 and the lag time) as:
Clinical data of Popovic et al. have been used representing evaluation of diclofenac pharmacokinetics in a small number of healthy adults during a bioequivalence trial. In the spirit of the present invention, the data from were taken as cumulative concentration of diclofenac, averaged for all 12 patients. Here the initial mass of the drug was known of 100 mg, and the instant volume of distribution (VOD-2) was directly quantifiable by diving this mass for the measured cumulative concentration analyzed (Table 2).

[4] = cited from earlier work; for Tested c2(t): 100 mg, mean of 12, cumulative
[5] = system: L-type Ca^2+ current (ICa); experiment: calcium current (ICa) changes in ventricular myocytes with NCX inhibitor; type: cell-based, canine
Description: In this example the data from publication by Oravecz et.al. was used, where authors have attempted to clarify the underlying mechanism of the limited inotropic action of selective sodium-calcium exchange (NCX) inhibition by a novel inhibitor molecule (ORM-10962) on canine ventricular myocytes. […] The forward mode operation of NCX is considered as the main route of Ca^2+ removal balancing the Ca^2+influx generated by the L-type Ca^2+ current (ICa) and the reverse mode NCX activity. […] These experimental data have been analyzed in the present invention. […] In order to perform time convolution directly, the concentration of ORM-10962 should have been known in the target compartment, but here only the effect size (current measured) has been reported.

[6] = system: L-type Ca^2+ current (ICa); conditions: steady-state conditions; cited from earlier work
[7] = least-squares fit in [6], slow release 100 mg tablet

gentamicin
Sample gentamicin amount, Average ([1]; average of S1-S3, 1 h): 187.2 µg
Sample gentamicin amount, Average ([1]; average of S1-S3, 3 h): 221.2 µg
Sample gentamicin amount, Average ([1]; average of S1-S3, 6 h): 171.9 µg
Sample gentamicin amount, Average ([1]; average of S1-S3, 24 h): 191.1 µg
Sample gentamicin amount, Average ([1]; average of S1-S3, 48 h): 195.1 µg
Sample gentamicin amount, Average ([1]; average of S1-S3, 72 h): 189.4 µg
Sample gentamicin amount, Average ([1]; average of S1-S3, 96 h): 199.9 µg
Sample gentamicin amount, Average ([1]; average of S1-S3, 168 h): 241.0 µg
Sample gentamicin amount, Average ([1]; average of S1-S3, 264 h): 247.5 µg
Sample gentamicin amount, Average ([1]; average of S1-S3, 336 h): 255.3 µg
c2(t), gentamicin concentration in the target compartment ([1]; 1 h): 93.6 mg/L
c2(t), gentamicin concentration in the target compartment ([1]; 3 h): 113.4 mg/L
c2(t), gentamicin concentration in the target compartment ([1]; 6 h): 90.5 mg/L
c2(t), gentamicin concentration in the target compartment ([1]; 24 h): 103.3 mg/L
c2(t), gentamicin concentration in the target compartment ([1]; 48 h): 108.4 mg/L
c2(t), gentamicin concentration in the target compartment ([1]; 72 h): 108.3 mg/L
c2(t), gentamicin concentration in the target compartment ([1]; 96 h): 117.6 mg/L
c2(t), gentamicin concentration in the target compartment ([1]; 168 h): 146.1 mg/L
c2(t), gentamicin concentration in the target compartment ([1]; 264 h): 154.7 mg/L
c2(t), gentamicin concentration in the target compartment ([1]; 336 h): 164.7 mg/L
Remained in the coating ([1]; 1 h): 1207.8 µg
Remained in the coating ([1]; 3 h): 1173.8 µg
Remained in the coating ([1]; 6 h): 1223.1 µg
Remained in the coating ([1]; 24 h): 1203.9 µg
Remained in the coating ([1]; 48 h): 1199.9 µg
Remained in the coating ([1]; 72 h): 1205.6 µg
Remained in the coating ([1]; 96 h): 1195.1 µg
Remained in the coating ([1]; 168 h): 1154.0 µg
Remained in the coating ([1]; 264 h): 1147.5 µg
Remained in the coating ([1]; 336 h): 1139.7 µg

Cn1c(=O)c2c(ncn2C)n(C)c1=O [caffeine]
Characteristic time τ [2]: 40 min
Transport constant K [2]: 162.77
kinetic parameter β [2]: 2.0-2.9
Coefficient of partition Leq ([2]; Control (no cells)): 5.61
Coefficient of partition Leq ([3]; Actual (double cells layer)): 35.5
Characteristic time τ ([3]; human): 27 min
Transport constant K ([3]; human): 6697.34
kinetic parameter β ([3]; human): 3.2-5.4

O=C(O)Cc1ccccc1Nc1c(Cl)cccc1Cl [diclofenac]
kinetic parameter β (clinical): > 1
Vd at 1 h (clinical; 100 mg): 522 L
Vd at 1.5 h (clinical; 100 mg): 56.1 L
Vd at 2 h (clinical; 100 mg): 21.2 L
Vd at 2.5 h (clinical; 100 mg): 13.7 L
Vd at 3 h (clinical; 100 mg): 10.5 L
Vd at 4 h (clinical; 100 mg): 8.97 L
Vd at 6 h (clinical; 100 mg): 8.11 L
Vd at 8 h (clinical; 100 mg): 7.78 L
Vd at 12 h (clinical; 100 mg): 7.75 L
Vd at 24 h (clinical; 100 mg): 7.69 L
Calculated c2(t) (clinical; 1 h): 0.141 mg/mL
Calculated c2(t) (clinical; 1.5 h): 1.216 mg/mL
Dr (generalized Deborah rate number) (clinical; 1.5 h): 644.65 ×10^6
kinetic parameter β (clinical; 1.5 h): 5.538
Calculated c2(t) (clinical; 2 h): 3.818 mg/mL
Dr (generalized Deborah rate number) (clinical; 2 h): 244.03 ×10^6
kinetic parameter β (clinical; 2 h): 4.884
Calculated c2(t) (clinical; 2.5 h): 6.832 mg/mL
Dr (generalized Deborah rate number) (clinical; 2.5 h): 124.66 ×10^6
kinetic parameter β (clinical; 2.5 h): 4.480
Calculated c2(t) (clinical; 3 h): 9.093 mg/mL
Dr (generalized Deborah rate number) (clinical; 3 h): 75.67 ×10^6
kinetic parameter β (clinical; 3 h): 4.256
Calculated c2(t) (clinical; 4 h): 11.349 mg/mL
Dr (generalized Deborah rate number) (clinical; 4 h): 37.46 ×10^6
kinetic parameter β (clinical; 4 h): 3.875
Calculated c2(t) (clinical; 6 h): 12.560 mg/mL
Dr (generalized Deborah rate number) (clinical; 6 h): 16.35 ×10^6
kinetic parameter β (clinical; 6 h): 3.388
Calculated c2(t) (clinical; 8 h): 12.846 mg/mL
Dr (generalized Deborah rate number) (clinical; 8 h): 10.07 ×10^6
kinetic parameter β (clinical; 8 h): 3.266
Calculated c2(t) (clinical; 12 h): 13.001 mg/mL
Dr (generalized Deborah rate number) (clinical; 12 h): 5.80 ×10^6
kinetic parameter β (clinical; 12 h): 3.471
Calculated c2(t) (clinical; 24 h): 13.073 mg/mL
Dr (generalized Deborah rate number) (clinical; 24 h): 3.07 ×10^6
kinetic parameter β (clinical; 24 h): 3.388
Tested c2(t) ([4]; 1.0 h): 0.192 mg/mL
Tested c2(t) ([4]; 1.5 h): 1.783 mg/mL
Tested c2(t) ([4]; 2.0 h): 4.725 mg/mL
Tested c2(t) ([4]; 2.5 h): 7.283 mg/mL
Tested c2(t) ([4]; 3 h): 9.500 mg/mL
Tested c2(t) ([4]; 4 h): 11.150 mg/mL
Tested c2(t) ([4]; 6 h): 12.333 mg/mL
Tested c2(t) ([4]; 8 h): 12.858 mg/mL
Tested c2(t) ([4]; 12 h): 12.900 mg/mL
Tested c2(t) ([4]; 24 h): 13.000 mg/mL
fitted parameter d of fractional compartmental model [4, 7]: 22.79±16.41
fitted parameter k02 of fractional compartmental model [4, 7]: 1.51±1.05

gentamicin palmitate
kinetic parameter β ([1]; not constant, FIG. 12): well below unity

O=C(CN1CCC(O)CC1)Nc1ccc(Oc2ccc3c(c2)CCC(c2ccccc2)O3)nc1 (stereo not shown) [ORM-10962]
efficacy parameter LCa ([5]; ICa change per μM of the added drug): 42.123 nA/μM
characteristic time ([5]; calcium current in myocytes): 1.69 s
non-dimensional transport constant K ([5]; calcium current in myocytes): 104.5
reduction of ICa amplitude in the presence vs. absence of the inhibitor [6]: significantly greater
